This note sets out measurements from PubChem BioAssay AID180 (DTP/NCI, 2004).

For orientation: T/C means the result in the treated group divided by that in the control group, in per cent.

This assay deals with BDF1 mice, Adenocarcinoma 755 s.c., tumor weight T/C. Put plainly: NCI In Vivo Anticancer Drug Screen. Data for tumor model Adenocarcinoma 755 (subcutaneous) in B6D2F1 (BDF1) mice. The settings on record: endpoint: mean tumor weight, schedule: Q01DX011 (ip), higher = larger tumour. In short, it runs like this:
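Values express treated (T) relative to vehicle-dosed control (C) animals, based on survival or tumour size measured after compound treatment of mice bearing a transplanted tumour.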

“And” between values parts separate entries of the source, which are not always exact repeats. Identical values can stand only once. Non-standard residues stand in square brackets, D forms with d. Residues, ends and D or L forms follow the SMILES beside them. ξ: configuration not given here. Ac5c = NC1(C(=O)O)CCCC1; ξS = NC(CO)C(=O)O

For `CC(CNC(=O)CCOS(C)(=O)=O)CNC(=O)CCOS(C)(=O)=O`, the T/C is, setting by setting: (dose: 6.25 mg/kg/injection, vehicle: carboxymethylcellulose (CMC)) 120 % of control; (dose: 12.5 mg/kg/injection, vehicle: carboxymethylcellulose (CMC)) 92 % of control; (dose: 14.0 mg/kg/injection, vehicle: carboxymethylcellulose (CMC)) 73 % of control; (dose: 25.0 mg/kg/injection, vehicle: carboxymethylcellulose (CMC)) 111 % of control; (dose: 28.0 mg/kg/injection, vehicle: carboxymethylcellulose (CMC)) 108 % of control; (dose: 50.0 mg/kg/injection, vehicle: carboxymethylcellulose (CMC)) 39 % of control. In addition, the T/C was 72 % of control (dose: 57.0 mg/kg/injection, vehicle: carboxymethylcellulose (CMC)); 15 % of control (dose: 100.0 mg/kg/injection, vehicle: carboxymethylcellulose (CMC)); 20 % of control and 36 % of control (dose: 113.0 mg/kg/injection, vehicle: carboxymethylcellulose (CMC)); 2 % of control (dose: 200.0 mg/kg/injection, vehicle: carboxymethylcellulose (CMC)); 4 % of control (dose: 225.0 mg/kg/injection, vehicle: carboxymethylcellulose (CMC)).

With `NC(CO)C(=O)NC1(C(=O)O)CCCC1` (stereo unspecified) (H-[ξS]-[Ac5c]-OH), the T/C was 62 % of control (dose: 45.0 mg/kg/injection, vehicle: carboxymethylcellulose (CMC)); 12 % of control (dose: 90.0 mg/kg/injection, vehicle: carboxymethylcellulose (CMC)); 5 % of control (dose: 180.0 mg/kg/injection, vehicle: carboxymethylcellulose (CMC)).

For the compound `O=C(Nc1ccc(C2=NCCN2)cc1)c1cccc(C(=O)Nc2ccc(C3=NCCN3)cc2)c1`, the T/C (dose: 9.0 mg/kg/injection, vehicle: water) is 110 % of control; the T/C (dose: 9.4 mg/kg/injection, vehicle: carboxymethylcellulose (CMC)) is 76 % of control; the T/C (dose: 12.0 mg/kg/injection, vehicle: water) was 165 % of control; the T/C (dose: 15.0 mg/kg/injection, vehicle: methylcellulose (MC)) is 86 % of control; the T/C (dose: 18.0 mg/kg/injection, vehicle: water) is 108 % of control; the T/C (dose: 18.75 mg/kg/injection, vehicle: carboxymethylcellulose (CMC)) is 60 % of control. Besides, the T/C was 60 % of control (dose: 25.0 mg/kg/injection, vehicle: water); 64 % of control (dose: 30.0 mg/kg/injection, vehicle: methylcellulose (MC)); 47 % of control (dose: 37.5 mg/kg/injection, vehicle: water); 59 % of control (dose: 50.0 mg/kg/injection, vehicle: water); 67 % of control (dose: 60.0 mg/kg/injection, vehicle: methylcellulose (MC)); 37 % of control (dose: 120.0 mg/kg/injection, vehicle: methylcellulose (MC)).

Consider `N#[N+]c1cnc([O-])[nH]c1=O`, for which the T/C by setting is: (dose: 1.25 mg/kg/injection, vehicle: carboxymethylcellulose (CMC)) 111 % of control; (dose: 1.41 mg/kg/injection, vehicle: carboxymethylcellulose (CMC)) 80 % of control; (dose: 1.47 mg/kg/injection, vehicle: carboxymethylcellulose (CMC)) 116 % of control; (dose: 2.5 mg/kg/injection, vehicle: carboxymethylcellulose (CMC)) 53 % of control; (dose: 2.83 mg/kg/injection, vehicle: carboxymethylcellulose (CMC)) 108 % of control; (dose: 2.95 mg/kg/injection, vehicle: carboxymethylcellulose (CMC)) 98 % of control. Besides, the T/C is, setting by setting: (dose: 5.0 mg/kg/injection, vehicle: carboxymethylcellulose (CMC)) 39 % of control; (dose: 5.65 mg/kg/injection, vehicle: carboxymethylcellulose (CMC)) 94 % of control; (dose: 5.9 mg/kg/injection, vehicle: carboxymethylcellulose (CMC)) 76 % of control; (dose: 11.3 mg/kg/injection, vehicle: carboxymethylcellulose (CMC)) 49 % of control; (dose: 1170.0 micrograms/kg/injection, vehicle: carboxymethylcellulose (CMC)) 86 % of control; (dose: 2925.0 micrograms/kg/injection, vehicle: carboxymethylcellulose (CMC)) 78 % of control.

As for `CC(C)CCn1cnc2c(SCC(=O)O)nc(N)nc21`, the T/C was 46 % of control (dose: 20.0 mg/kg/injection, vehicle: methylcellulose (MC)); 56 % of control (dose: 65.0 mg/kg/injection, vehicle: methylcellulose (MC)); 55 % of control (dose: 200.0 mg/kg/injection, vehicle: methylcellulose (MC)).
